Results on 14 compounds are retold here after publication PMC3491656 (Journal of medicinal chemistry, 2012).

“Also recorded” adds a separate entry of the source.

Data set [1] can be described thus: Preliminary in vivo metabolism study. The note with it: Supplemental Figure 2.
Data set [2] deals with p-Akt and p-MAPK. The data set can be described thus: Downstream p-Akt and p-MAPK signaling in mouse brain. The note with it: hippocampus; for downstream p-Akt and p-MAPK signalings: 1 mg/kg oral, 4 h; for downstream p-Akt activity: 2.5 mg/kg oral, 3 weeks. The format is in vivo, C57 BL/6J mice.
For data set [3], the target named is TrkA receptor (Mus musculus, UniProt Q3UFB7). The data set can be described thus: TrkA activation in mouse brain after chronic oral treatment. In kind it is in vivo, mice. To be noted: 5 mg/kg oral, anti-p-TrkA 794.
Data set [4] concerns HepG2 cells. The data set can be described thus: Comet assay. In kind it is cell-based, human. The note with it: 100 μM, 24 h.
Data set [5] has as its target T1, TrkB (Mus musculus, UniProt P15209). The data set can be described thus: TrkB activation in mouse brain after chronic oral treatment. In kind it is in vivo, C57 BL/6J mice. The note with it: for TrkB phosphorylation in cortex and hippocampus: 5 mg/kg oral, vs vehicle; for TrkB phosphorylation in cortex and hippocampus / TrkB activation in brain tissues (anti-p-TrkB Y816 and Y706 immunoblotting): 3 weeks; for TrkB activation in brain tissues (anti-p-TrkB Y816 and Y706 immunoblotting) / TrkB phosphorylation in hippocampus (immunohistochemistry, anti-p-TrkB 816): 2.5 mg/kg oral; for TrkB activation in brain tissues (anti-p-TrkB Y816 and Y706 immunoblotting): after behavioral tests; for TrkB phosphorylation in hippocampus (immunohistochemistry, anti-p-TrkB 816): chronic, brain sections. Background: A western blot detects proteins with antibodies after separation by electrophoresis.

Data set [6] has as its system male C57BL/6J mice. In words: Forced swim test. The format is in vivo. The note with it: for immobility in forced swim test: 5 mg/kg oral once a day for 21 days.
Data set [7] concerns male C57BL/6J mice. The data set can be described thus: Locomotor activity assay. In kind it is in vivo.
Data set [8] addresses T1, TrkB. The data set can be described thus: TrkB activation in mouse brain after single oral administration. In kind it is in vivo, C57 BL/6J mice. To be noted: 1 mg/kg oral; for TrkB activation in mouse brain: hippocampus.
The target in data set [9] is TrkB (Rattus norvegicus, UniProt Q63604). In words: TrkB activation in primary cortical cultures. In kind it is cell-based. To be noted: 500 nM, 15 min; for TrkB activation (agonistic activity): primary cortical cultures from E17 rat embryos, p-TrkB immunoblotting (Figure 2B); for TrkB and Akt activation in primary neurons: rat primary neurons, immunoblotting and p-Akt ELISA (Figure 4B).

For data set [10], the target named is hERG (Homo sapiens, UniProt Q12809). The data set can be described thus: hERG inhibition assay. In kind it is in vitro ADME. (The hERG channel carries a current that helps repolarise heart muscle cells.)
Data set [11] can be described thus: Human plasma protein binding. The format is in vitro ADME. To be noted: 5 μM.
The test system of data set [12] is male C57BL/6J mice. In words: Tail suspension test. The format is in vivo. The note with it: 2.5 mg/kg oral once a day for 3 weeks.
Data set [13] can be described thus: Reactive metabolite screening. In kind it is in vitro ADME. The note with it: reactive metabolic screening.
Data set [14] can be described thus: In vivo pharmacokinetic studies in mice.
Data set [15] has as its system P-Akt S473. The data set can be described thus: P-Akt S473 ELISA in drug-treated mouse brain. In kind it is in vivo, C57 BL/6J mice. To be noted: 1 mg/kg oral, time course. A general note: In an ELISA, binding on a coated surface is turned into a signal by an enzyme label.
Where [16] appears, read: 5 mg/kg oral for 21 days, tested at day 22.
[17] abbreviates: 2.5 mg/kg oral once a day for 3 weeks.

TrkB (Rattus norvegicus, UniProt Q63604), sequence (Q63604 32-821): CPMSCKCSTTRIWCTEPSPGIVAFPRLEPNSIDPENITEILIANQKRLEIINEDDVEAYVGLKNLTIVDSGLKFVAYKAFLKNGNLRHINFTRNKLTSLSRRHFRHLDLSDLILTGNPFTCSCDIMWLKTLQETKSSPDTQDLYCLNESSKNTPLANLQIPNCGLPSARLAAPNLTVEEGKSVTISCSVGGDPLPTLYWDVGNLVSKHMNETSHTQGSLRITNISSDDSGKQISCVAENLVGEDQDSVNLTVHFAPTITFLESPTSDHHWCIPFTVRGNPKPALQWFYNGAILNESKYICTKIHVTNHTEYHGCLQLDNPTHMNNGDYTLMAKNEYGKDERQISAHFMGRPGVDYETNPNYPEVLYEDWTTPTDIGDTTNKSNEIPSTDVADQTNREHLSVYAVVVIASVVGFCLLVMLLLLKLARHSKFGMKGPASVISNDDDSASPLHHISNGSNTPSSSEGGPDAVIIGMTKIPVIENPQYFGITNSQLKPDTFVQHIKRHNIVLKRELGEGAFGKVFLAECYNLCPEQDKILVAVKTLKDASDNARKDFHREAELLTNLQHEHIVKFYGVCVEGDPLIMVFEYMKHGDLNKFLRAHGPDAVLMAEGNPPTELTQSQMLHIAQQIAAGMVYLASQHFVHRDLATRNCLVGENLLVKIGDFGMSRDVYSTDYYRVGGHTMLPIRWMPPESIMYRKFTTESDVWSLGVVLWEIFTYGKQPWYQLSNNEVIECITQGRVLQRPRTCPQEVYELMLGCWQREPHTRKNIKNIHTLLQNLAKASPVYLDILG
T1 sequence (P15209 32-821): as the sequence (Q63604 32-821) above, with M3T, T9S, T10A, I32V, K63R, G84S, T153M, I185L, T394S, N770S counted along it
hERG, sequence (Q12809 whole entry): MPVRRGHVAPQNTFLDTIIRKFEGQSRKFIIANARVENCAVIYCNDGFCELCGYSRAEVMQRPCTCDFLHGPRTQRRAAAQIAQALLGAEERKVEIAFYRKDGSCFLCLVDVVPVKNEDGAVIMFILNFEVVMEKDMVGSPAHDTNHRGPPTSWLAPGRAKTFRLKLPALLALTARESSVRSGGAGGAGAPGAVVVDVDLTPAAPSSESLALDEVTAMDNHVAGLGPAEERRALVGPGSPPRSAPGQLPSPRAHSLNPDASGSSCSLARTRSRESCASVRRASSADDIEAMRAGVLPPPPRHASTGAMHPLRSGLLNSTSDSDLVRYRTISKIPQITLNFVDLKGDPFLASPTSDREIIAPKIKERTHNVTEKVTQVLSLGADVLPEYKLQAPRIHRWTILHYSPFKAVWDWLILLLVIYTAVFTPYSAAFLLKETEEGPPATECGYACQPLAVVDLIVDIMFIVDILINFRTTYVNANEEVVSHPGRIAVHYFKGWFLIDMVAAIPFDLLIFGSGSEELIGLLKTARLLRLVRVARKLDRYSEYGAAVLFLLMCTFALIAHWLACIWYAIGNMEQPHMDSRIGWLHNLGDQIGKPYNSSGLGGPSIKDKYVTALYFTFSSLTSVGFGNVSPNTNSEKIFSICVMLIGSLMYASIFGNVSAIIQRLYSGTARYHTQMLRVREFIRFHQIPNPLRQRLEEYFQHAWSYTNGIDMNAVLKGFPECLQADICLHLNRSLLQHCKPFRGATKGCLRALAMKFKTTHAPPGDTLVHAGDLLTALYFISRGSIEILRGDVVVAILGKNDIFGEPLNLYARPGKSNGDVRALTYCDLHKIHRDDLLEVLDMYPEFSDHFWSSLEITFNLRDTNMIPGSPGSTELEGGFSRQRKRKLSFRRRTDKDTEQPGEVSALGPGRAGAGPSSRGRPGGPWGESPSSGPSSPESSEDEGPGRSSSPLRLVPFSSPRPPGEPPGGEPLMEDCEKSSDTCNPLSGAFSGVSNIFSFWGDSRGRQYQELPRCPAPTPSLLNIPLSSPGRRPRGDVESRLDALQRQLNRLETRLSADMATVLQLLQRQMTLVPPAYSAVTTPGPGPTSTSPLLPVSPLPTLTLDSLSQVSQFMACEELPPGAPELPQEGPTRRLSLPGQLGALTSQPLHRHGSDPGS
TrkA receptor, sequence (Q3UFB7 34-799): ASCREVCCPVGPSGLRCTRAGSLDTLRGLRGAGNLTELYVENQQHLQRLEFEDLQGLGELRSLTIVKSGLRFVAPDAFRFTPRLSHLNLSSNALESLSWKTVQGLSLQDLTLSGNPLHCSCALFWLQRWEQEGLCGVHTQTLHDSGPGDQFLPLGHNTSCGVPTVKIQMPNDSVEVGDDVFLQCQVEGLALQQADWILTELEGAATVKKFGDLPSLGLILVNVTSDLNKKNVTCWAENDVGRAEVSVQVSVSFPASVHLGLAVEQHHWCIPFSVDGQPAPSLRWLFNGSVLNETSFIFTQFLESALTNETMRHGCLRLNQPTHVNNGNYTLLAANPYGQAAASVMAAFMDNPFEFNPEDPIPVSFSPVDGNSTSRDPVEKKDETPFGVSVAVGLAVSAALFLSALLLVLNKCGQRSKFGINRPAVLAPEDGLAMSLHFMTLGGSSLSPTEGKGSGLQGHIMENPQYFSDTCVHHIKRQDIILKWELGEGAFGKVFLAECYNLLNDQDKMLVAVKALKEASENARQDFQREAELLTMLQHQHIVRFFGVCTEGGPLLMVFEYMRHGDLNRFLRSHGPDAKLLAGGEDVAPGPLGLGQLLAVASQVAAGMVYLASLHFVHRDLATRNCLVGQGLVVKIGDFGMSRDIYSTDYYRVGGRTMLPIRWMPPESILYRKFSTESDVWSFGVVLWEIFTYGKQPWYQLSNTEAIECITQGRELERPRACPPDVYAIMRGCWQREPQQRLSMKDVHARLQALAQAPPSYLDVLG

Consider `O=c1cc(-c2ccccc2)oc2c(O)c(O)ccc12` [7,8-DHF, 7,8-dihydroxyflavone], for which, in [1], the “in vivo metabolic pathways” value was “subjected to oxidation, glucuronidation, sulfation and methylation”.
Consider `CN(C)c1ccc(-c2cc(=O)c3ccc4nc[nH]c4c3o2)cc1` [compound 11, 8-(4′-(Dimethylamino)phenyl)chromeno[7,8-d]imidazol-6(1H)-one], for which, in data set [2], the “downstream p-Akt and p-MAPK signalings” value is on record as “activated”. Further, the “TrkA activation in mouse brain” value in [3] is “TrkB but not TrkA is activated”. Besides, the “DNA lesions (Comet assay)” value in data set [4] was “induced DNA lesions”. Also, the “TrkB phosphorylation in cortex and hippocampus” value in data set [5] is given as “clearly escalated TrkB phosphorylation”. Moreover, in [6], the “immobility in forced swim test” value is given as “significantly reduced the immobility”. For the same compound, the locomotor activity entry in [7] (setting [16]) is “substantially augmented locomoter activity; also recorded: significantly increased the locomotor activity”. The “TrkB activation in mouse brain” value in [8] (4 h) was “robustly activated TrkB; also recorded: strongest TrkB stimulatory effect”. In [8] (time course), the “time at which TrkB activation faded away” value is listed as 16 h and the “time of peak TrkB activation in mouse brain” value is listed as 4 h. In addition, the “TrkB activation (agonistic activity)” value in data set [9] was “stronger effect in triggering TrkB activation than the lead compound”.
Take `Cc1nc2ccc3c(=O)cc(-c4ccc(N5CCCC5)cc4)oc3c2[nH]1` [compound 13, 2-methyl-8-(4-(pyrrolidin-1-yl)phenyl)chromeno[7,8-d]imidazol-6(1H)-one]: in data set [10], the hERG inhibition result was “did not possess any concentration-dependent inhibition activity of hERG; also recorded: trifling”. Further, the “downstream p-Akt activity” value in [2] was “upregulated”. In data set [5], the “TrkB activation in brain tissues (anti-p-TrkB Y816 and Y706 immunoblotting)” value was “markedly activated TrkB”; the “TrkB phosphorylation in hippocampus (immunohistochemistry, anti-p-TrkB 816)” value was “elevated TrkB phosphorylation in hippocampus”. Besides, in data set [7] (setting [17]), the locomotor activity entry is “neither compound 13 nor 23 altered the motion activity”. Also, in [8] (2 h), the “TrkB activation in mouse brain” value is recorded as “triggers TrkB activation in mouse brain”. Further, the Binding classification result in [11] was “High Binding”. Moreover, the “immobility in tail suspension test” value in data set [12] is recorded as “significantly reducing the immobility”. Besides, the “TrkB and Akt activation in primary neurons” value in data set [9] was “higher activity than compound 11 in triggering TrkB and Akt activation”. Besides, the “adduct formation (Comment)” value in [13] is “quite stable in vitro; also recorded: No adduct detected”. This compound yielded an ACINF in data set [14] (PO, 10 mg/kg) of 1293 ng·min/mL.
Regarding `O=c1cc(-c2ccc(N3CCCC3)cc2)oc2c1ccc1cc[nH]c12` [compound 23, 2-(4-(Pyrrolidin-1-yl)phenyl)pyrano[3,2-g]indol-4(9H)-one], the “downstream p-Akt activity” value in [2] is “upregulated”. In addition, in [5], the “TrkB activation in brain tissues (anti-p-TrkB Y816 and Y706 immunoblotting)” value is listed as “markedly activated TrkB”; the “TrkB phosphorylation in hippocampus (immunohistochemistry, anti-p-TrkB 816)” value is recorded as “elevated TrkB phosphorylation in hippocampus”. For the same compound, in data set [6] (2.5 mg/kg oral gavage once a day for 3 weeks), the “reduction of immobility in FST compared to vehicle control” value is recorded as “had no effect”. Besides, the locomotor activity entry in [7] (setting [17]) was “neither compound 13 nor 23 altered the motion activity”. Also, the Binding classification entry in [11] is “High Binding”. For the same compound, the “immobility in tail suspension test” value in data set [12] is on record as “lacked efficacy”. In addition, in [9], the “TrkB and Akt activation in primary neurons” value is “higher activity than compound 11 in triggering TrkB and Akt activation”. The “adduct formation (Comment)” value in data set [13] is “formed numerous adducts”.
A word on the AUC(0-t): it is exposure summed from dosing to a finite time, without extrapolation to infinity. Low readings indicate less exposure, high ones more exposure. A word on the half-life: it is how long it takes for the measured level to halve. Read a high half-life as slow decline. In the case of `CN(C)c1ccc(-c2cc(=O)c3ccc(O)c(O)c3o2)cc1` [compound 24, 4′-dimethylamino-7,8-dihydroxyflavone], in data set [2], the “downstream p-Akt and p-MAPK signalings” value is “activated”. The “TrkB activation in mouse brain” value in data set [8] (4 h) is on record as “clearly activated the TrkB receptor; also recorded: strongest TrkB stimulatory effect”. For the same compound, in data set [14] (PO, 5 mg/kg), the Bioavailability result is given as “not measurable”. This compound also gave an AUC(0-t) in [14] (mouse, plasma, iv, 1 mg/kg, AUClast) of about 98.8 ng·h/mL. Moreover, in data set [14] (mouse, plasma, iv, 1 mg/kg, T1/2, IV), the half-life was about 9 min.
For the compound `O=c1cc(-c2ccc(F)cc2)[nH]c2c(O)c(O)ccc12` [compound 25], the “TrkB activation (agonistic activity)” value in data set [9] is listed as “diminished agonistic activity”.
On the same count and under the same terms, as for `O=c1cc(-c2ccccc2)[nH]c2c(O)c(O)ccc12` [compound 26], the entry is “diminished agonistic activity”; as for `CN(C)c1cccc(-c2cc(=O)c3ccc(O)c(O)c3o2)c1` [compound 28, 3′-dimethylamino-7,8-DHF], “comparable activity as the lead compound 24”.
For the compound `O=c1cc(-c2ccc(N3CCOCC3)cc2)oc2c(O)c(O)ccc12` [compound 29, 4′-morpholino-7,8-DHF], in data set [9], the “TrkB activation (agonistic activity)” value is listed as “comparable activity as the lead compound 24”.
For the compound `O=c1cc(-c2ccc(F)cc2)oc2c(O)c(O)ccc12` [compound 30], in [9], the “TrkB activation (agonistic activity)” value was “inhibited its activity”.
In the case of `O=c1c(F)c(-c2cccc(O)c2)oc2c(O)c(O)ccc12` [compound 32], in data set [3], the “TrkA activation in mouse brain” value was “TrkB but not TrkA is activated”. Also, the “TrkB phosphorylation in cortex and hippocampus” value in data set [5] is on record as “clearly escalated TrkB phosphorylation”. Also, the “immobility in forced swim test” value in data set [6] was “significantly reduced the immobility”. Besides, in [7] (setting [16]), the locomotor activity entry is on record as “but not 32 significantly increased the locomotor activity”. The “time of peak TrkB activation in mouse brain” value in data set [8] (time course) is 1 to 2 h. Also, in [8] (various time points), the “TrkB activation in mouse brain (time course comparison)” value is “less effect on TrkB activation than compound 11”. Also, the “TrkB activation (agonistic activity)” value in [9] is recorded as “did not significantly affect 7,8-DHF’s TrkB agonistic activity; also recorded: barely affects TrkB stimulatory activity”. Moreover, the “time at which p-Akt returned to the baseline” value in [15] was found to be 8 h. Moreover, the “time of peak p-Akt activation (ELISA)” value in [15] (20 μg brain lysates) is reported as 1 h.
Regarding `O=c1cc(-c2ccccc2)oc2c(O)c(O)cc(F)c12` [compound 33], in [9], the “TrkB activation (agonistic activity)” value is reported as “did not significantly affect 7,8-DHF’s TrkB agonistic activity”.
In the case of `O=c1c(F)c(-c2ccccc2)oc2c(O)c(O)ccc12` [compound 34], the “TrkB activation (agonistic activity)” value in [9] is “did not significantly affect 7,8-DHF’s TrkB agonistic activity”.
For the compound `CN(C)c1ccc(-c2cc(=O)c3c(F)cc(O)c(O)c3o2)cc1` [compound 35], the “TrkB activation (agonistic activity)” value in data set [9] is listed as “did not significantly affect 7,8-DHF’s TrkB agonistic activity”.
